pKd: −log10 of the molar value.
Experiments:
[1] = molecular target: Protein kinase C and casein kinase substrate in neurons protein 2 (Homo sapiens) (UniProt Q9UNF0); also: assay method not described here
[2] = molecular target: Centrosome and spindle pole-associated protein 1 (Homo sapiens) (UniProt Q1MSJ5); also: assay method not described here
[3] = molecular target: Origin recognition complex subunit 3 (Homo sapiens) (UniProt Q9UBD5); also: assay method not described here
[4] = molecular target: Peptidyl-prolyl cis-trans isomerase FKBP3 (Homo sapiens) (UniProt Q00688); also: assay method not described here
[5] = molecular target: Secretory carrier-associated membrane protein 2 (Homo sapiens) (UniProt O15127); also: assay method not described here
Homo sapiens [6] = organism: Homo sapiens; also: assay method not described here
[7] = molecular target: H/ACA ribonucleoprotein complex subunit 1 (Homo sapiens) (UniProt Q9NY12); also: assay method not described here
Homo sapiens [8] = organism: Homo sapiens; remark: listed apart in the source; also: assay method not described here
[9] = molecular target: Very long chain fatty acid elongase 5 (Homo sapiens) (UniProt Q9NYP7); also: assay method not described here
[10] = molecular target: Complement component 1 Q subcomponent-binding protein, mitochondrial (Homo sapiens) (UniProt Q07021); also: assay method not described here
[11] = molecular target: Acetyl-CoA carboxylase 2 (Homo sapiens) (UniProt O00763); also: assay method not described here
[12] = molecular target: Signal recognition particle receptor subunit alpha (Homo sapiens) (UniProt P08240); also: assay method not described here
[13] = molecular target: Kinesin-like protein KIF2C (Homo sapiens) (UniProt Q99661); also: assay method not described here
[14] = molecular target: Zinc finger CCHC domain-containing protein 8 (Homo sapiens) (UniProt Q6NZY4); also: assay method not described here
[15] = molecular target: Polyadenylate-binding protein 4 (Homo sapiens) (UniProt Q13310); also: assay method not described here
[16] = molecular target: Mitochondrial import inner membrane translocase subunit Tim10 (Homo sapiens) (UniProt P62072); also: assay method not described here
Homo sapiens [17] = organism: Homo sapiens; remark: listed apart in the source; also: assay method not described here
[18] = molecular target: Y-box-binding protein 3 (Homo sapiens) (UniProt P16989); also: assay method not described here
[19] = molecular target: Choline/ethanolaminephosphotransferase 1 (Homo sapiens) (UniProt Q9Y6K0); also: assay method not described here
[20] = molecular target: Non-selective voltage-gated ion channel VDAC2 (Homo sapiens) (UniProt P45880); also: assay method not described here
Homo sapiens [21] = organism: Homo sapiens; remark: listed apart in the source; also: assay method not described here
[22] = molecular target: Sorting nexin-9 (Homo sapiens) (UniProt Q9Y5X1); also: assay method not described here
[23] = molecular target: General transcription factor IIF subunit 2 (Homo sapiens) (UniProt P13984); also: assay method not described here
[24] = molecular target: Lysosomal alpha-mannosidase (Homo sapiens) (UniProt O00754); also: assay method not described here
[25] = molecular target: SWI/SNF-related matrix-associated actin-dependent regulator of chromatin subfamily A member 1 (Homo sapiens) (UniProt P28370); also: assay method not described here
[26] = molecular target: Nucleolar protein 58 (Homo sapiens) (UniProt Q9Y2X3); also: assay method not described here
[27] = molecular target: Paired amphipathic helix protein Sin3a (Homo sapiens) (UniProt Q96ST3); also: assay method not described here
[28] = molecular target: Dual specificity protein kinase CLK4 (Homo sapiens) (UniProt Q9HAZ1); also: assay method not described here
[29] = molecular target: Complex I assembly factor ACAD9, mitochondrial (Homo sapiens) (UniProt Q9H845); also: assay method not described here
[30] = molecular target: Uncharacterized aarF domain-containing protein kinase 5 (Homo sapiens) (UniProt Q3MIX3); also: assay method not described here
[31] = molecular target: Pleckstrin homology domain-containing family G member 3 (Homo sapiens) (UniProt A1L390); also: assay method not described here
[32] = molecular target: Pumilio homolog 2 (Homo sapiens) (UniProt Q8TB72); also: assay method not described here
[33] = molecular target: Ras suppressor protein 1 (Homo sapiens) (UniProt Q15404); also: assay method not described here
[34] = molecular target: Proteasome subunit alpha type-3 (Homo sapiens) (UniProt P25788); also: assay method not described here
[35] = molecular target: 14-3-3 protein beta/alpha (Homo sapiens) (UniProt P31946); also: assay method not described here
[36] = molecular target: N-acetylneuraminate-9-phosphate synthase (Homo sapiens) (UniProt Q9NR45); also: assay method not described here
[37] = molecular target: Citrate synthase, mitochondrial (Homo sapiens) (UniProt O75390); also: assay method not described here
[38] = molecular target: Serine/arginine-rich splicing factor 2 (Homo sapiens) (UniProt Q01130); also: assay method not described here
[39] = molecular target: Serine-threonine kinase receptor-associated protein (Homo sapiens) (UniProt Q9Y3F4); also: assay method not described here
[40] = molecular target: Hypoxia up-regulated protein 1 (Homo sapiens) (UniProt Q9Y4L1); also: assay method not described here
[41] = molecular target: Exportin-1 (Homo sapiens) (UniProt O14980); also: assay method not described here
Translin (Homo sapiens) = Translin (Homo sapiens) (UniProt Q15631); also: assay method not described here
[42] = molecular target: Vacuole membrane protein 1 (Homo sapiens) (UniProt Q96GC9); also: assay method not described here
[43] = molecular target: Histone-arginine methyltransferase CARM1 (Homo sapiens) (UniProt Q86X55); also: assay method not described here
[44] = molecular target: Palmitoyl-protein thioesterase 1 (Homo sapiens) (UniProt P50897); also: assay method not described here
Ephrin type-A receptor 2 = Ephrin type-A receptor 2 (Homo sapiens, UniProt P29317); assay: Binding affinity to recombinant human EPHA2 (D596 to G900 residues) expressed in insect cells incubated for 30 mins by MST assay; parameters: species or system Insect cell
[45] = molecular target: C-1-tetrahydrofolate synthase, cytoplasmic (Homo sapiens) (UniProt P11586); also: assay method not described here

Polyadenylate-binding protein 4 (Homo sapiens), sequence (Q13310 whole entry): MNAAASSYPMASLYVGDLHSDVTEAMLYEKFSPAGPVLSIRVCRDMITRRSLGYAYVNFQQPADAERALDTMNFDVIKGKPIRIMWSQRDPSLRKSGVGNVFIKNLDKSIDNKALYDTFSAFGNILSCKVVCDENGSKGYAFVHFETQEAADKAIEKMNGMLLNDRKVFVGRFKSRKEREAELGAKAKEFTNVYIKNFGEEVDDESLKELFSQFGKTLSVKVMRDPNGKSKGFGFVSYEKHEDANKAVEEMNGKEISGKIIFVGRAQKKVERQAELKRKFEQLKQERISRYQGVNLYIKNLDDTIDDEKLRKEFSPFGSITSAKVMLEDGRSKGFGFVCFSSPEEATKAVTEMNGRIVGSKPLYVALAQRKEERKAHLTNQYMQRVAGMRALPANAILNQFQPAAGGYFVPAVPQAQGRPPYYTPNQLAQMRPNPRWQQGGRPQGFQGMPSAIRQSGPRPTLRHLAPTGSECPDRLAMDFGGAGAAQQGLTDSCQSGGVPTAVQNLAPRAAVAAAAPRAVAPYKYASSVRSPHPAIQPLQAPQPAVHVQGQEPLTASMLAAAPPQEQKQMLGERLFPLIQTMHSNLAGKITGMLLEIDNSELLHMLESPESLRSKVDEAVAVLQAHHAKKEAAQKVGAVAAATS
Uncharacterized aarF domain-containing protein kinase 5 (Homo sapiens), sequence (Q3MIX3 whole entry, the tested form may be a part): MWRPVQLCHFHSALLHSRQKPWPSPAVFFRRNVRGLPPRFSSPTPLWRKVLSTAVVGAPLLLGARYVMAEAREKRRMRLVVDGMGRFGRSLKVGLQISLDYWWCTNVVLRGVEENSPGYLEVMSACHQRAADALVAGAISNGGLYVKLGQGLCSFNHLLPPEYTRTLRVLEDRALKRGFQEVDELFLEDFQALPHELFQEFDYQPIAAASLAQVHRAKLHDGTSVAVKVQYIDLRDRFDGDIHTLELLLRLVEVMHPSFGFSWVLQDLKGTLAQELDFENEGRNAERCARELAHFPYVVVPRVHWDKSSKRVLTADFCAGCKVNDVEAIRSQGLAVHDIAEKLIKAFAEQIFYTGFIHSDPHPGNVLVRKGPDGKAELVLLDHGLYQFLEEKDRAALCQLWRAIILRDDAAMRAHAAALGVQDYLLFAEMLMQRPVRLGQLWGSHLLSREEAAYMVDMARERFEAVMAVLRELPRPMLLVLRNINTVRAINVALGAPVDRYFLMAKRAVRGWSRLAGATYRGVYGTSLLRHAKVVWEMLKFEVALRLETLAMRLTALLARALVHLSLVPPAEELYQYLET
Dual specificity protein kinase CLK4 (Homo sapiens), sequence (Q9HAZ1 whole entry, looked up): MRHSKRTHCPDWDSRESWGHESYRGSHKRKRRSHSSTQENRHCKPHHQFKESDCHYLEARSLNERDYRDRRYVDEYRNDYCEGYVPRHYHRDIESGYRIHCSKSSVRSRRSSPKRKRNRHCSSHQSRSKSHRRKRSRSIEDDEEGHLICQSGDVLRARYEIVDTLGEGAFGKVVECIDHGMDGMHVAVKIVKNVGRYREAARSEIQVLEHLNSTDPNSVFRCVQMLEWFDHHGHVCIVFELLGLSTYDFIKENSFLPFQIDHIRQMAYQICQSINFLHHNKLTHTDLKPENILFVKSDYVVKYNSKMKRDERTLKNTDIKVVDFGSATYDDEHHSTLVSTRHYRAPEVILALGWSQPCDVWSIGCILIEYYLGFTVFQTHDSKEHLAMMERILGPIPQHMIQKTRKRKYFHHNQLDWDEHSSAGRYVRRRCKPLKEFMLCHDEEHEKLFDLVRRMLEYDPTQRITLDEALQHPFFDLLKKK
Protein kinase C and casein kinase substrate in neurons protein 2 (Homo sapiens), sequence (Q9UNF0 whole entry): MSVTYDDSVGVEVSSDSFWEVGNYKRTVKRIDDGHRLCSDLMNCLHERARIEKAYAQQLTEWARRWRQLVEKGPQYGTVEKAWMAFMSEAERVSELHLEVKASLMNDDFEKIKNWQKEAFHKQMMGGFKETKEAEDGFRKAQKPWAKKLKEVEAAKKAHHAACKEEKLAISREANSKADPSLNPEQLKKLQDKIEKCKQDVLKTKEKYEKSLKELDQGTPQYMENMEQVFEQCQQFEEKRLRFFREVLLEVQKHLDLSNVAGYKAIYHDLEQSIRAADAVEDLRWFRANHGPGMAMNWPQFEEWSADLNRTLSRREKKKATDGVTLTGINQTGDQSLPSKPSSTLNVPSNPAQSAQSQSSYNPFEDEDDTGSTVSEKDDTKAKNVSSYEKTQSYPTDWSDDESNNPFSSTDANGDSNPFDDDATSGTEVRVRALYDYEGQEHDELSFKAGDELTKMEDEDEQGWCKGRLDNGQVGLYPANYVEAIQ
Proteasome subunit alpha type-3 (Homo sapiens), sequence (P25788 whole entry): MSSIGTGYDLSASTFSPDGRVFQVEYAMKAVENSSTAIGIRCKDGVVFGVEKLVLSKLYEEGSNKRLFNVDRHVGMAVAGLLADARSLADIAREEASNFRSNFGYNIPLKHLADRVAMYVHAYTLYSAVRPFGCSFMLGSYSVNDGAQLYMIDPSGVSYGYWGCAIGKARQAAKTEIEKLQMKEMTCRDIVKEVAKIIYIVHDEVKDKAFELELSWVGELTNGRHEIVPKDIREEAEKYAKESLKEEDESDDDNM
Acetyl-CoA carboxylase 2 (Homo sapiens), sequence (O00763 whole entry, looked up): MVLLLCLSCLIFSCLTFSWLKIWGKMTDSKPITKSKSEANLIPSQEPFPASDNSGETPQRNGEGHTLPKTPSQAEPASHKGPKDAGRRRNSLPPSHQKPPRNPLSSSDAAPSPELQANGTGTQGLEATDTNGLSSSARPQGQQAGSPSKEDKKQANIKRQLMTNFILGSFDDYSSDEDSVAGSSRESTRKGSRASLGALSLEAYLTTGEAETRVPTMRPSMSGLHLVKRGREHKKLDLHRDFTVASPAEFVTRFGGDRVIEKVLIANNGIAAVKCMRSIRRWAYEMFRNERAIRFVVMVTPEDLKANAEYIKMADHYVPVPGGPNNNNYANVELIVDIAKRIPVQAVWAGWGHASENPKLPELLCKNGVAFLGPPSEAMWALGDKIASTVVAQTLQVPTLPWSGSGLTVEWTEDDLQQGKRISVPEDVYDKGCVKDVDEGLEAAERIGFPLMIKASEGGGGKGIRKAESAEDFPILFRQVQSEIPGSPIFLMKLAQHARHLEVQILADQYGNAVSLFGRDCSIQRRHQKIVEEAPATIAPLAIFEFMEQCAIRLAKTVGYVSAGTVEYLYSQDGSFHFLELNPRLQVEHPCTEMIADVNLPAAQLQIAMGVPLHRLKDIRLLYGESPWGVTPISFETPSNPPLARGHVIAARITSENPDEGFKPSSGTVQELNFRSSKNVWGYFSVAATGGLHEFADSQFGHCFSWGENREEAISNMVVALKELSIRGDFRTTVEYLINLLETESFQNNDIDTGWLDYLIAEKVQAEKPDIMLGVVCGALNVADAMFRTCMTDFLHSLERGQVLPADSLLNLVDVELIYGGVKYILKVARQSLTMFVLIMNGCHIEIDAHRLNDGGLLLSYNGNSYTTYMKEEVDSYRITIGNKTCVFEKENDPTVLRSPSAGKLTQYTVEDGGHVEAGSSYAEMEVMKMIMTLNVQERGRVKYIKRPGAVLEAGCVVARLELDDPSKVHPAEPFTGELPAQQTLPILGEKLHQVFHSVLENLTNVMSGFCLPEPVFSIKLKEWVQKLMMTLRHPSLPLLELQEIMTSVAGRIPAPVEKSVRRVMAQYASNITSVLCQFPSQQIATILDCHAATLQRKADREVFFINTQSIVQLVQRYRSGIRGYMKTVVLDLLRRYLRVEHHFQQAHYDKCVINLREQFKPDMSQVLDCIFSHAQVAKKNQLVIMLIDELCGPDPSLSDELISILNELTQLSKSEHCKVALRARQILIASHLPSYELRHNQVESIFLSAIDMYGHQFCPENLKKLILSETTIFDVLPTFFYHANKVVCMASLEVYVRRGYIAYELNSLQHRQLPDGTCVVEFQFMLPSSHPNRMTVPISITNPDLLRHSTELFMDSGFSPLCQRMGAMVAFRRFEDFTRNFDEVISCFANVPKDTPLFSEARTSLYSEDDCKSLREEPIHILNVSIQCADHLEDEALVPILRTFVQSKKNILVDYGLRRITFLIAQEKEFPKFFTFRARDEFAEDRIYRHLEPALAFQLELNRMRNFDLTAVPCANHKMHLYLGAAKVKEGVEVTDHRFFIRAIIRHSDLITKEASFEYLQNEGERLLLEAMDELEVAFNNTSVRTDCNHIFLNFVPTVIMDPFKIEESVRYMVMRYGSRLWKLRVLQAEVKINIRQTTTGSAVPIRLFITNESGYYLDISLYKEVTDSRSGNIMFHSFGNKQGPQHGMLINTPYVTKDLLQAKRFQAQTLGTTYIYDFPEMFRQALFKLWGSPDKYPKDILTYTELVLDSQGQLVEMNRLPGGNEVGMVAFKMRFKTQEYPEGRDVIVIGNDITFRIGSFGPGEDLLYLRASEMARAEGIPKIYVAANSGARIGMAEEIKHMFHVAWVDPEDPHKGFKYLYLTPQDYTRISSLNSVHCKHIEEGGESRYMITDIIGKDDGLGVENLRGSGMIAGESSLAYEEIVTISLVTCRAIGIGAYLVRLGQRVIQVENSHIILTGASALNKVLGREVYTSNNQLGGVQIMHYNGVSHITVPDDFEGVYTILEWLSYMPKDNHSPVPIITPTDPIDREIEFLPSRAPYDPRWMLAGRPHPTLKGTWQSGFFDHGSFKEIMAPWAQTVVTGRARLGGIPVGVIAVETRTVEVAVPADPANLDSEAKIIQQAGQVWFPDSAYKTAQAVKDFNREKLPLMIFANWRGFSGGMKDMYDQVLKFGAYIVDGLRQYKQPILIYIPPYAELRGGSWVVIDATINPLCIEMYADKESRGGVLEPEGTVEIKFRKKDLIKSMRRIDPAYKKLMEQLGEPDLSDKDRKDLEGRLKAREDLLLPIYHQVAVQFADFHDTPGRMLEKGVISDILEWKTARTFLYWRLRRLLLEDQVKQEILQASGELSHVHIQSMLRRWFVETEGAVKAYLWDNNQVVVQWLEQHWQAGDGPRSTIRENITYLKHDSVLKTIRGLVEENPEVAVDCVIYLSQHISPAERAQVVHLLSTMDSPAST
Mitochondrial import inner membrane translocase subunit Tim10 (Homo sapiens), sequence (P62072 whole entry): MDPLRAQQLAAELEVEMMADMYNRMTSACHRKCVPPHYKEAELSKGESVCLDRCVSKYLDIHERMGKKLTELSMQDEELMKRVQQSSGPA

Cc1ccc(C(=O)Nc2cccc(C(F)(F)F)c2)cc1Nc1nc(-c2cccnc2)nc2c1cnn2C
ED50 [1]: 579 nM
ED50 [2]: 1410 nM
ED50 [3]: 22.9 µM
ED50 [4]: 12 µM
ED50 [5]: 6.77 µM
ED50 (Homo sapiens [6]): 11.8 µM
ED50 [7]: 181 nM
ED50 (Homo sapiens [8]): 59 nM
ED50 [9]: 2870 nM
ED50 [10]: 34.8 nM
ED50 [11]: 175 nM
ED50 [12]: 39.4 µM
ED50 [13]: 20 nM
ED50 [14]: 16.9 µM
ED50 [15]: 12.1 µM
ED50 [16]: 27.9 nM
ED50 (Homo sapiens [17]): 1.59 mM
ED50 [18]: 15.4 µM
ED50 [19]: 3.97 nM
ED50 [20]: 3.15 µM
ED50 (Homo sapiens [21]): 0.533 nM
ED50 [22]: 494 nM
ED50 [23]: 7.69 µM
ED50 [24]: 83 µM
ED50 [25]: 14.1 nM
ED50 [26]: 28.7 nM
ED50 [27]: 47.7 µM
ED50 [28]: 676 µM
ED50 [29]: 42.8 µM
ED50 [30]: 1.15 mM
ED50 [31]: 5.53 nM
ED50 [32]: 526 nM
ED50 [33]: 93.4 µM

Cc1ccc(C(=O)Nc2cccc(C(F)(F)F)c2)cc1Nc1nc(-c2cccnc2)nc2nn(C)cc12
ED50 [34]: 8.4 nM
ED50 [35]: 80.7 nM
ED50 [36]: 90 nM
ED50 [37]: 62.4 µM
ED50 [38]: 9.31 nM
ED50 [39]: 17.7 nM
ED50 [40]: 52.4 nM
ED50 [41]: 4.43 µM
ED50 (Translin (Homo sapiens)): 1.01 nM
ED50 [42]: 1930 nM
ED50 [43]: 113 nM
ED50 [44]: 26.8 µM
pKd (Ephrin type-A receptor 2): 7.14
ED50 [45]: 87.1 nM
